Measurements taken from patent publication US5767269A, “Processes for the preparation of low-affinity, low molecular weight heparins useful as antithrombotics” (Hamilton Civic Hospitals Research Development Inc., priority 1996, dated 1998).

Columns and labels:
[1] = system: surface-bound thrombin; assay: Extracorporeal recirculation circuit: clotting of the filter in recalcified human whole blood; conditions: concentrations which prolong the thrombin clotting time to over 500 seconds (10 to 20 U/ml)
Protocol: The circuit consists of Tygon tubing (3/16"×1/16") connected to a 40 micron transfusion filter (Pall SQ40S). The system includes 3-way stopcocks for blood sampling. A surgical pressure transducer connected to a pressure recorder (Hewlett-Packard) is connected in line with the filter so that clotting of the filter causes a steady increase in pressure. Citrated whole blood taken from normal, healthy volunteers is used. The circuit is filled with 50 ml of whole blood placed in a reservoir and kept in a waterbath maintained at 37° C. The anticoagulant to be tested is added to the circuit, clotting is initiated by recalcification (0.8 ml of 1.0M CaCl2), and the blood is recirculated at a constant flow rate through the thrombogenic surface using a roller head pump (Cole-Parmer MFLX modular drive with a large F/6 roll head cartridge). Thrombosis of the filter is monitored by a change in pressure in a gauge inserted into the circuit, proximal to the filter. […]
The inactivation of surface-bound thrombin and fluid-phase thrombin can be measured simultaneously using this system. More particularly, inactivation of surface-bound thrombin is quantified by recording the delay in clotting of the circuit. […] Inactivation of fluid phase thrombin is quantified by recording the thrombin clotting time of plasma prepared from blood removed from the circuit just before recalcification.

[2] = system: fluid-phase thrombin; assay: Thrombin clotting time of plasma from blood of the extracorporeal circuit; format: biochemical, human
Source text: The inactivation of surface-bound thrombin and fluid-phase thrombin can be measured simultaneously using this system. More particularly, inactivation of surface-bound thrombin is quantified by recording the delay in clotting of the circuit. This delay is contributed to, albeit to a lesser extent, by the inactivating effect of the anticoagulant on fluid phase thrombin, whose generation is potentiated by the clot-bound thrombin. Inactivation of fluid phase thrombin is quantified by recording the thrombin clotting time of plasma prepared from blood removed from the circuit just before recalcification.

Hirudin was tested, and the “prevention of thrombosis in the circuit compared with LA-LMWH” value [1] was “much less effective at preventing thrombosis in the circuit”, the TCT ([2]; 10 U/mL (Table 3)) was over 500 s and the TCT ([2]; 20 U/ml (Table 3)) was over 500 s.
